Laboratory results: patent US5212187A, “Pyridyl alkylamine compounds which are useful against histamine H1 and H2 receptors” (Zyma SA, priority 1991, dated 1993)

Tests used:
[1] = molecular target: T1, histamine H1 -receptors (Cavia porcellus, UniProt P31389); assay: in vitro histamine H1-antagonism on isolated guinea pig ileum; details: cumulative concentration/action curves (van Rossum), read-out: H1 -antagonism ileum -log KB (converted)
T1 construct: isolated guinea pig ileum (H1); from tissue; host or cells: isolated guinea pig ileum
T1 sequence (P31389 whole entry): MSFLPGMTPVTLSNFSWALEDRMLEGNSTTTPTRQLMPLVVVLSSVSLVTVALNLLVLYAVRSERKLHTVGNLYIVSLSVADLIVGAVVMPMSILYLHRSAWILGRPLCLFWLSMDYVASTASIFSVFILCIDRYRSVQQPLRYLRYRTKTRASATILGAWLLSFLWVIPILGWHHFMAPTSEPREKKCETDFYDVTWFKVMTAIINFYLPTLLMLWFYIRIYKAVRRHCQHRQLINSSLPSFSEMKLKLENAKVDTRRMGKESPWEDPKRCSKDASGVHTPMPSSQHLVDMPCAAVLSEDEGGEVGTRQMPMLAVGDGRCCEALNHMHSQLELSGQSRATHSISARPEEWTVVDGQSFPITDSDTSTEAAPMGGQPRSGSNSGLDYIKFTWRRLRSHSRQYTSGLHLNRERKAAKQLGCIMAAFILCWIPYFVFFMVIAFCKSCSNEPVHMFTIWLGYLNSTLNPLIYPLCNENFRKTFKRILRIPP
Excerpt: (§1) The compounds of formula I according to the invention are distinguished by a novel overall pharmacological activity that has not been described hitherto. […] Suitable for differentiating the two types of action are, for example, in vitro tests on isolated spontaneously beating guinea pig right atrium (H2) and on isolated guinea pig ileum (H1) (Black, J. W.; Duncan, W. A. M.; Durant, G. J., Ganellin, C. R.; Parsons, M. E. (1972), "Definition and Antagonism of Histamine H2 -receptors", Nature 236, 385-390). The concentration/action curves for determining the pharmacological parameters (-log KB) are recorded using a cumulative technique according to van Rossum, J. M. (1963), "Cumulative Dose-Response Curves. II. Technique for the Making of Dose-Response Curves in Isolated Organs and the Evaluation of Drug Parameters", Arch. Int. Pharmacodyn. Ther. 143, 299-307.
(§2) (determined from isolated guinea pig ileum and atrium, […]

[2] = molecular target: T2, histamine H2 -receptors (Cavia porcellus, UniProt P47747); assay: in vitro histamine H2-antagonism on isolated spontaneously beating guinea pig right atrium; details: cumulative concentration/action curves (van Rossum), read-out: H2 -antagonism atrium -log KB (converted)
T2 construct: isolated spontaneously beating guinea pig right atrium (H2); from tissue; host or cells: isolated spontaneously beating guinea pig right atrium
T2 sequence (P47747 whole entry): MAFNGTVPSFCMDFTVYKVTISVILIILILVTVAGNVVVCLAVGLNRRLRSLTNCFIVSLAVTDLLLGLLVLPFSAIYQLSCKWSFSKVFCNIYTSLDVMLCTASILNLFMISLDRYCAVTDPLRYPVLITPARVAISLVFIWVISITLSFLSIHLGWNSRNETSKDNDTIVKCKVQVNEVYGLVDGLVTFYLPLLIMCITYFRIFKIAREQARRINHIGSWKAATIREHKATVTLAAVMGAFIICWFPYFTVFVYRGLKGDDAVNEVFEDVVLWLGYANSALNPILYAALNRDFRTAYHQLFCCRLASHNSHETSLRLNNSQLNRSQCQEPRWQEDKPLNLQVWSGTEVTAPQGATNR
Excerpt: as §1, §2

SMILES | Kb [1] | Kb [2]
CN(CCNC(=NCCCCOc1cccc(CN2CCCCC2)c1)NC#N)CCC(c1ccc(Cl)cc1)c1ccccn1 (stereo not shown) [Example 1, N-[2-[N-[3-(4-chlorophenyl)-3-(2-pyridyl)propyl]-N-methylamino]ethyl]-N'-cyano-N"-[4-[3-(piperidinomethyl)phenoxy]butyl]guanidine] | 63.1 nM | 2290 nM
CN(CCCCNC(=NCCCOc1cccc(CN2CCCCC2)c1)NC#N)CCC(c1ccccc1)c1ccccn1 (stereo not shown) [Example 9, N-cyano-N'-[4-[N-[3-phenyl-3-(2-pyridyl)propyl]-N-methylamino]butyl]-N"-[3-[3-(piperidinomethyl)phenoxy]propyl]guanidine] | 11.7 nM | 501 nM
CN(CCCNC(=NCCCOc1cccc(CN2CCCCC2)c1)NC#N)CCC(c1ccccc1)c1ccccn1 (stereo not shown) [Example 10, N-cyano-N'-[3-[N-[3-phenyl-3-(2-pyridyl)propyl]-N-methylamino]propyl]-N"-[3-[3-(piperidinomethyl)phenoxy]propyl]guanidine] | 6.46 nM | 1480 nM
CN(CCCCNC(=NCCSCc1csc(NC(=N)N)n1)NC#N)CCC(c1ccc(Cl)cc1)c1ccccn1 (stereo not shown) [Example 17, N-[4-[N-[3-(4-chlorophenyl)-3-(2-pyridyl)propyl]-N-methylamino]butyl]-N'-cyano-N"-[2-[[(2-guanidino-4-thiazolyl)methyl]thio]ethyl]guanidine] | 5.01 nM | 166 nM
CN(CCCCCNC(=NCCSCc1csc(NC(=N)N)n1)NC#N)CCC(c1ccc(Cl)cc1)c1ccccn1 (stereo not shown) [Example 18, N-[5-[N-[3-(4-chlorophenyl)-3-(2-pyridyl)propyl]-N-methylamino]pentyl]-N'-cyano-N"-[2-[[(2-guanidino-4-thiazolyl)methyl]thio]ethyl]guanidine] | 3.72 nM | 126 nM
CN(CCCCCCCNC(=NCCSCc1csc(NC(=N)N)n1)NC#N)CCC(c1ccc(Cl)cc1)c1ccccn1 (stereo not shown) [Example 20, N-[7-[N-[3-(4-chlorophenyl)-3-(2-pyridyl)propyl]-N-methylamino]heptyl]-N'-cyano-N"-[2-[[(2-guanidino-4-thiazolyl)methyl]thio]ethyl]guanidine] | 4.17 nM | 30.9 nM
CN(CCCCCCCNC(=C[N+](=O)[O-])NCCSCc1csc(NC(=N)N)n1)CCC(c1ccc(Cl)cc1)c1ccccn1 (stereo not shown) [Example 23, N-[7-[N-[3-(4-chlorophenyl)-3-(2-pyridyl)propyl]-N-methylamino]heptyl]-N'-[2-[[(2-guanidino-4-thiazolyl)methyl]thio]ethyl]-2-nitro-1,1-ethenediamine] | 5.01 nM | 12.6 nM
CN(CCCNC(=O)NCCCOc1cccc(CN2CCCCC2)c1)CCC(c1ccc(F)cc1)c1ccccn1 (stereo not shown) [Example 30, N-[3-[N-[3-(4-fluorophenyl)-3-(2-pyridyl)propyl]-N-methylamino]propyl]-N'-[3-[3-(piperidinomethyl)phenoxy]propyl]urea] | 6.17 nM | 209 nM
CN(CCCCCCCCNC(=O)NCCSCc1csc(NC(=N)N)n1)CCC(c1ccc(Cl)cc1)c1ccccn1 (stereo not shown) [Example 35, N-[8-[N-[3-(4-chlorophenyl)-3-(2-pyridyl)propyl]-N-methylamino]octyl]-N'-[2-[[(2-guanidino-4-thiazolyl)methyl]thio]ethyl]urea] | 13.8 nM | 39.8 nM
CN(CCCCCCCNC(=O)NCCSCc1csc(NC(=N)N)n1)CCC(c1ccc(Cl)cc1)c1ccccn1 (stereo not shown) [Example 36, N-[7-[N-[3-(4-chlorophenyl)-3-(2-pyridyl)propyl]-N-methylamino]heptyl]-N'-[2-[[(2-guanidino-4-thiazolyl)methyl]thio]ethyl]urea] | 5.37 nM | 26.9 nM
CN(CCCCCCNC(=O)NCCSCc1csc(NC(=N)N)n1)CCC(c1ccc(Cl)cc1)c1ccccn1 (stereo not shown) [Example 37, N-[6-[N-[3-(4-chlorophenyl)-3-(2-pyridyl)propyl]-N-methylamino]hexyl]-N'-[2-[[(2-guanidino-4-thiazolyl)methyl]thio]ethyl]urea] | 7.41 nM | 123 nM
CN(CCCCCCCNC(=S)NCCSCc1csc(NC(=N)N)n1)CCC(c1ccc(Cl)cc1)c1ccccn1 (stereo not shown) [Example 48, N-[7-[N-[3-(4-chlorophenyl)-3-(2-pyridyl)propyl]-N-methylamino]heptyl]-N'-[2-[[(2-guanidino-4-thiazolyl)methyl]thio]ethyl]thiourea] | 20 nM | 60.3 nM
Cc1[nH]cnc1CSCCNC(=O)NCCCN(C)CCC(c1ccc(Cl)cc1)c1ccccn1 (stereo not shown) [Example 50, N-[3-[N-[3-(4-chlorophenyl)-3-(2-pyridyl)propyl]-N-methylamino]propyl]-N'-[2-[[(5-methylimidazol-4-yl)methyl]thio]ethyl]urea] | 7.08 nM | 6460 nM
COc1ccc(CN(CCN(C)CCCCCCNC(=NCCCOc2cccc(CN3CCCCC3)c2)NC#N)c2ccccn2)cc1 [Example 55, N-cyano-N'-[6-[N-[2-[N-(4-methoxybenzyl)-N-(2-pyridyl)amino]ethyl]-N-methylamino]hexyl]-N"-[3-[3-(piperidinomethyl)phenoxy]propyl]guanidine] | 7.24 nM | 372 nM
CN(CCCCCCNC(=NCCCOc1cccc(CN2CCCCC2)c1)NC#N)CCN(Cc1ccc(F)cc1)c1ccccn1 [Example 60, N-cyano-N'-[6-[N-[2-[N-(4-fluorobenzyl)-N-(2-pyridyl)amino]ethyl]-N-methylamino]hexyl]-N"-[3-[3-(piperidinomethyl)phenoxy]propyl]guanidine] | 8.71 nM | 389 nM
COc1ccc(CN(CCN(C)CCCCCCNC(=O)NCCCOc2cccc(CN3CCCCC3)c2)c2ccccn2)cc1 [Example 66, N-[6-[N-[2-[N-(4-methoxybenzyl)-N-(2-pyridyl)amino]ethyl]-N-methylamino]hexyl]-N'-[3-[3-(piperidinomethyl)phenoxy]propyl]urea] | 11.2 nM | 182 nM
CN(CCCCCNC(=O)NCCCOc1cccc(CN2CCCCC2)c1)CCN(Cc1ccc(F)cc1)c1ccccn1 [Example 70, N-[5-[N-[2-[N-(4-fluorobenzyl)-N-(2-pyridyl)amino]ethyl]-N-methylamino]-pentyl]-N'-[3-[3-(piperidinomethyl)phenoxy]propyl]urea] | 9.55 nM | 135 nM
CN(CCCCCCCNC(=O)NCCCOc1cccc(CN2CCCCC2)c1)CCN(Cc1ccc(F)cc1)c1ccccn1 [Example 72, N-[7-[N-[2-[N-(4-fluorobenzyl)-N-(2-pyridyl)amino]ethyl]-N-methylamino]heptyl]-N'-[3-[3-(piperidinomethyl)phenoxy]propyl]urea] | 17.8 nM | 44.7 nM
COc1ccc(CN(CCN(C)CCCCCCNC(=C[N+](=O)[O-])NCCCOc2cccc(CN3CCCCC3)c2)c2ccccn2)cc1 [Example 75, N-[6-[N-[2-[N-(4-methoxybenzyl)-N-(2-pyridyl)amino]ethyl]-N-methylamino]hexyl]-N'-[3-[3-(piperidinomethyl)phenoxy]propyl]-2-nitro-1,1-ethenediamine] | 12.3 nM | 123 nM
COc1ccc(CN(CCN(C)CCCCCCN=C(NC#N)NCCSCc2csc(NC(=N)N)n2)c2ccccn2)cc1 [Example 79, N-cyano-N'-[2-[[(2-guanidino-4-thiazolyl)methyl]thio]ethyl]-N"-[6-[N-[2-[N-(4-methoxybenzyl)-N-(2-pyridyl)amino]ethyl]-N-methylamino]hexyl]-guanidine] | 2.45 nM | 245 nM
CN(CCCCCCNC(=NC#N)NCCSCc1csc(N=C(N)N)n1)CCN(Cc1ccc(F)cc1)c1ccccn1 [Example 84] | 3.63 nM | 302 nM
CN(CCCCCCCNC(=NCCSCc1csc(NC(=N)N)n1)NC#N)CCN(Cc1ccc(F)cc1)c1ccccn1 [Example 85, N-cyano-N'-[7-[N-[2-[N-(4-fluorobenzyl)-N-(2-pyridyl)amino]ethyl]-N-methylamino]heptyl]-N"-[2-[[(2-guanidino-4-thiazolyl)methyl]thio]ethyl]guanidine] | 7.08 nM | 95.5 nM
COc1ccc(CN(CCN(C)CCCCNC(=O)NCCSCc2csc(NC(=N)N)n2)c2ccccn2)cc1 [Example 88, N-[2-[[(2-guanidino-4-thiazolyl)methyl]thio]ethyl]-N'-[4-[N-[2-[N-(4-methoxybenzyl)-N-(2-pyridyl)amino]ethyl]-N-methylamino]butyl]urea] | 1.82 nM | 219 nM
COc1ccc(CN(CCN(C)CCCCCCNC(=O)NCCSCc2csc(NC(=N)N)n2)c2ccccn2)cc1 [Example 89, N-[2-[[(2-guanidino-4-thiazolyl)methyl]thio]ethyl]-N'-[6-[N-[2-[N-(4-methoxybenzyl)-N-(2-pyridyl)amino]ethyl]-N-methylamino]hexyl]urea] | 1.74 nM | 174 nM
CN(CCCCCCNC(=O)NCCSCc1csc(NC(=N)N)n1)CCN(Cc1ccc(F)cc1)c1ccccn1 [Example 94, N-[6-[N-[2-[N-(4-fluorobenzyl)-N-(2-pyridyl)amino]ethyl]-N-methylamino]hexyl]-N'-[2-[[(2-guanidino-4-thiazolyl)methyl]thio]ethyl]urea] | 1.58 nM | 141 nM
COc1ccc(CN(CCN(C)CCCCCCNC(=C[N+](=O)[O-])NCCSCc2csc(NC(=N)N)n2)c2ccccn2)cc1 [Example 96, N-[2-[[(2-guanidino-4-thiazolyl)methyl]thio]ethyl]-N'-[6-[N-[2-[N-(4-methoxybenzyl)-N-(2-pyridyl)amino]ethyl]-N-methylamino]hexyl]-2-nitro-1,1-ethenediamine] | 3.09 nM | 5.25 nM
